Measurements taken from patent US20230355597A1, “COMPOUNDS, COMPOSITIONS, AND METHODS FOR THE TREATMENT AND PREVENTION OF AVIAN PATHOGENIC E. COLI (APEC)” (OHIO STATE INNOVATION FOUNDATION, priority 2018, published 2023).
Marks after values point to notes of the source that are not given here.

Legend:
Rif^r APEC O78 [1] = experiment: In vivo screening of quorum sensing inhibitors in APEC infected broiler chickens
Caco-2 cells = experiment: LDH assay of AI-2 inhibitors; conditions: Caco-2, 100 µM, 24 h
Rif^r APEC O78 [2] = experiment: Wax moth (Galleria mellonella) larva infection model (AI-2 inhibitors); conditions: 48 h post treatment
AI-2 activity of APEC O2 = experiment: AI-2 bioluminescence indicator assay (V. harveyi BB170); conditions: Escherichia coli, read-out: Inhibition % of AI-2 activity
AI-2 activity of APEC O1 = experiment: as above; conditions: Escherichia coli, read-out: Inhibition % of AI-2 activity, APEC O1, 100 µM
APEC O2 in HD-11 cells = experiment: Intracellular survival assay (AI-2 inhibitors); conditions: O2, HD-11, 100 µM, 6 h
[3] = system: AI-2 activity of APEC O18; experiment: AI-2 bioluminescence indicator assay (V. harveyi BB170); conditions: Escherichia coli, read-out: Inhibition % of AI-2 activity, APEC O18, 100 µM
AI-2 activity of APEC O8 = experiment: as above; conditions: Escherichia coli, read-out: Inhibition % of AI-2 activity, APEC O8, 100 µM
[4] = system: AI-2 activity of APEC O78; experiment: as above; conditions: Escherichia coli, read-out: Inhibition % of AI-2 activity
[5] = system: QS and virulence associated genes of APEC O78; experiment: qRT-PCR of QS-regulated and virulence factors genes; assay type: cell-based, avian pathogenic Escherichia coli (APEC); conditions: 100 µM, 10 h
Procedure: Quantitative real-time reverse transcription PCR (qRT-PCR). […] APEC O78 was grown in the presence of 100 µM of each compound in a 96-well plate at 37° C. for 10 h. APEC O78 culture treated with 1 µL of 100% DMSO was used as […]. Total RNA was extracted from duplicate wells for each compound (200 µL) using a miRNeasy Mini Kit (Qiagen). RNA quality and quantity was determined by nanodrop 2000 C spectrophotometer (Thermo scientific). Traces of DNA was removed using Genomic DNA removal mix (Qiagen). Approximately, 5 µg of purified RNA was used to synthesize cDNA using the Qiagen RT^2 First Strand Kit (Qiagen). The qRT-PCR was performed using SensiMix™ SYBER® Hi-Rox qPCR Master Mix (Bioline) according to manufacturer instructions in a realplex^2 mastercycler (Eppendorf) with 55° C. annealing temperature. Gene-specific primers were designed using PrimerQuest Tool and obtained from integrated DNA technologies (IDT). The data were normalized to the house-keeping gene, glyceraldehyde-3-phosphate dehydrogenase (GAPDH). The relative fold change was calculated using the ΔΔCt method. Three independent experiments were conducted.

[6] = system: AI-2 activity of APEC O109; experiment: AI-2 bioluminescence indicator assay (V. harveyi BB170); conditions: Escherichia coli, read-out: Inhibition % of AI-2 activity
APEC O115 = assay type: cell-based, avian pathogenic Escherichia coli (APEC); conditions: APEC O115, M63 media; MIC/MBC
APEC O78-53 = assay type: cell-based, avian pathogenic Escherichia coli (APEC); conditions: APEC O78-53, M63 media; MIC/MBC
APEC O2 = assay type: cell-based, avian pathogenic Escherichia coli (APEC); conditions: APEC O2, M63 media; MIC/MBC
[7] = system: intracellular APEC O1 in THP-1 cells; experiment: Intracellular survival assay (cidal SMs); conditions: O1, THP-1, 6 h treatment; superscript = multiple of MIC
APEC O35 = assay type: cell-based, avian pathogenic Escherichia coli (APEC); conditions: APEC O35, M63 media; MIC/MBC
APEC O78 [8] = assay type: cell-based, avian pathogenic Escherichia coli (APEC); conditions: APEC O78, M63 media
[9] = system: intracellular APEC O78 in Caco-2 cells; experiment: Intracellular survival assay (cidal SMs); conditions: O78, Caco-2, 6 h treatment; superscript = multiple of MIC
[10] = system: intracellular APEC O2 in THP-1 cells; experiment: Intracellular survival assay (cidal SMs); conditions: O2, THP-1, 6 h treatment; superscript = multiple of MIC
[11] = system: biofilm embedded APEC O78; experiment: MBEC High-throughput assay; assay type: cell-based, avian pathogenic Escherichia coli (APEC); conditions: biofilm embedded APEC O78; superscript = multiple of MIC (footnote)
APEC O109 = assay type: cell-based, avian pathogenic Escherichia coli (APEC); conditions: APEC O109, M63 media; MIC/MBC
Rif^r APEC O78 [12] = experiment: In vivo efficacy of growth inhibitors in APEC infected broiler chickens
[13] = system: intracellular APEC O2 in HD11 cells; experiment: Intracellular survival assay (cidal SMs); conditions: O2, HD11, 6 h treatment; superscript = multiple of MIC
[14] = system: intracellular APEC O2 in Caco-2 cells; experiment: Intracellular survival assay (cidal SMs); conditions: O2, Caco-2, 6 h treatment; superscript = multiple of MIC
[15] = system: intracellular APEC O78, O2, and O1 in infected Caco-2, HD11, and THP1 cells; experiment: Intracellular survival assay (cidal SMs), summary over serotypes and cells; conditions: overall ranking
APEC O8 = assay type: cell-based, avian pathogenic Escherichia coli (APEC); conditions: APEC O8, M63 media; MIC/MBC
APEC O1-63 = assay type: cell-based, avian pathogenic Escherichia coli (APEC); conditions: APEC O1-63, M63 media; MIC/MBC
[16] = system: intracellular APEC O1 in Caco-2 cells; experiment: Intracellular survival assay (cidal SMs); conditions: O1, Caco-2, 6 h treatment; superscript = multiple of MIC
[17] = system: intracellular APEC O78 in HD11 cells; experiment: Intracellular survival assay (cidal SMs); conditions: O78, HD11, 6 h treatment; superscript = multiple of MIC
APEC O78 [18] = experiment: Loss of 260/280 nm absorbing materials assay; assay type: cell-based, avian pathogenic Escherichia coli (APEC); conditions: 2X MBC, 1 h, *P<0.05 vs DMSO
APEC O18 = assay type: cell-based, avian pathogenic Escherichia coli (APEC); conditions: APEC O18, M63 media; MIC/MBC
[19] = system: intracellular APEC O78 in THP-1 cells; experiment: Intracellular survival assay (cidal SMs); conditions: O78, THP-1, 6 h treatment; superscript = multiple of MIC
APEC O2-211 = assay type: cell-based, avian pathogenic Escherichia coli (APEC); conditions: APEC O2-211, M63 media; MIC/MBC
[20] = system: intracellular APEC O1 in HD11 cells; experiment: Intracellular survival assay (cidal SMs); conditions: O1, HD11, 6 h treatment; superscript = multiple of MIC
APEC O15 = assay type: cell-based, avian pathogenic Escherichia coli (APEC); conditions: APEC O15, M63 media; MIC/MBC
APEC O1 = assay type: cell-based, avian pathogenic Escherichia coli (APEC); conditions: APEC O1, M63 media; MIC/MBC
APEC O78 [21] = experiment: Confocal microscopy bacterial cytological profiling; assay type: cell-based, avian pathogenic Escherichia coli (APEC); conditions: 2X MBC
Procedure: Confocal and scanning electron microscopy. Confocal microscopy was used for bacterial cytological profiling (BCP) to identify the cellular pathways targeted by SMs as described previously. […] After incubation, treated cultures were centrifuged, washed, and resuspended in 100 μL PBS. […] Cultures were then centrifuged, washed, and resuspended in PBS to 1⁄10th volume of the original cultures.

Structure (SMILES): O=[N+]([O-])c1cccc(S(=O)(=O)Nc2ccc(Br)cc2)c1 [C6, N-(4-bromophenyl)-3-nitrobenzenesulfonamide]
- reduction in chicken mortality (Rif^r APEC O78 [1]; DMSO control mortality normalized to 100%): did not reduce
- average lesion score reduction (Rif^r APEC O78 [1]; liver, heart, lung and airsac, vs DMSO): 0.7-1.3
- Mortality rate (%) (Rif^r APEC O78 [1]; oral gavage once a day, day 4 to day 8, DMSO control 66.7%): 66.7%
- Reduction in APEC lesions severity, Air-sacs (%) (Rif^r APEC O78 [1]; vs DMSO treated control): 53.3%
- Reduction in APEC lesions severity, Heart (%) (Rif^r APEC O78 [1]; vs DMSO treated control): 43.8%
- Reduction in APEC lesions severity, Liver (%) (Rif^r APEC O78 [1]; vs DMSO treated control): 54.5%
- Reduction in APEC lesions severity, Lung (%) (Rif^r APEC O78 [1]; vs DMSO treated control): 66.7%
- toxicity (LDH) (Caco-2 cells): 27%
- larval death (Rif^r APEC O78 [2]): no larval death
- inhibition at 100 µM (AI-2 activity of APEC O2): 93%
- inhibition at 100 µM (AI-2 activity of APEC O1): ≥ 75%
- clearance of intracellular APEC (APEC O2 in HD-11 cells): 100%
- reduction of intracellular survival (APEC O2 in HD-11 cells; vs DMSO): 3.3 logs
- inhibition at 100 µM [3]: ≥ 75%
- inhibition at 100 µM (AI-2 activity of APEC O8): ≥ 75%
- inhibition at 100 µM [4]: 92%
- expression of cheW [5]: down-regulated
- expression of csrA [5]: down-regulated
- expression of fliP [5]: down-regulated
- expression of fpr [5]: down-regulated
- expression of murD [5]: down-regulated
- inhibition at 100 µM [6]: 60%

Structure (SMILES): CCN1C(=Cc2ccc3ccccc3[n+]2CC)C=Cc2ccccc21.[Cl-] [SM9]
- MBC (APEC O115): 50 µM
- MIC (APEC O115): 25 µM
- MBC (APEC O78-53): 25 µM
- MIC (APEC O78-53): 25 µM
- MBC (APEC O2): 50 µM
- MIC (APEC O2): 25 µM
- SMs intracellular APEC clearance concentration [7]: 50^b µM
- MBC (APEC O35): 50 µM
- MIC (APEC O35): 25 µM
- MIC (APEC O78 [8]; MIC/MBC): 25 µM
- MBC (APEC O78 [8]; cell prints MIC/MBC): 50 µM
- SMs intracellular APEC clearance concentration [9]: 50^b µM
- SMs intracellular APEC clearance concentration [10]: 50^b µM
- MBEC [11]: 50^b µM
- MBC (APEC O109): 50 µM
- MIC (APEC O109): 25 µM
- reduction of average APEC load in internal organs (Rif^r APEC O78 [12]; average of liver, heart, lung and kidney, vs untreated control): either exacerbated or did not reduce
- reduction of APEC induced mortality (Rif^r APEC O78 [12]; oral gavage twice a day, 5 days, untreated mortality (58.34%) normalized to 100%): 42.86%
- reduction of APEC lesions severity (%), Air-sacs (airsacculitis) (Rif^r APEC O78 [12]; untreated control = 100%): -88.2%
- reduction of APEC lesions severity (%), Heart (pericarditis) (Rif^r APEC O78 [12]; untreated control = 100%): -60%
- reduction of APEC lesions severity (%), Liver (perihepatitis) (Rif^r APEC O78 [12]; untreated control = 100%): -50%
- reduction of APEC lesions severity (%), Lung (lung congestion) (Rif^r APEC O78 [12]; untreated control = 100%): -16.7%
- reduction of APEC load, Heart (Rif^r APEC O78 [12]; vs untreated control): -0.5 log CFU/g of tissues
- reduction of APEC load, Kidney (Rif^r APEC O78 [12]; vs untreated control): -0.2 log CFU/g of tissues
- reduction of APEC load, Liver (Rif^r APEC O78 [12]; vs untreated control): -0.1 log CFU/g of tissues
- reduction of APEC load, Lung (Rif^r APEC O78 [12]; vs untreated control): -0.9 log CFU/g of tissues
- Body weight gain (BWG) (Rif^r APEC O78 [12]; weight of live chickens before necropsy minus weight before treatment): 214.93±31.88
- SMs intracellular APEC clearance concentration [13]: 100^c µM
- SMs intracellular APEC clearance concentration [14]: 100^c µM
- effectiveness in clearing intracellular APEC serotypes in all tested cells [15]: most effective
- MBC (APEC O8): 50 µM
- MIC (APEC O8): 25 µM
- MBC (APEC O1-63): 100 µM
- MIC (APEC O1-63): 50 µM
- SMs intracellular APEC clearance concentration [16]: 100^c µM
- SMs intracellular APEC clearance concentration [17]: 100^c µM
- Absorbance 260 (APEC O78 [18]; 260 nm absorbing material in supernatant): 3.99*
- Absorbance 280 (APEC O78 [18]; 280 nm absorbing material in supernatant): 2.78*
- MBC (APEC O18): 100 µM
- MIC (APEC O18): 25 µM
- SMs intracellular APEC clearance concentration [19]: 50^b µM
- MBC (APEC O2-211): 25 µM
- MIC (APEC O2-211): 25 µM
- SMs intracellular APEC clearance concentration [20]: 100^c µM
- MBC (APEC O15): 100 µM
- MIC (APEC O15): 25 µM
- MBC (APEC O1): 50 µM
- MIC (APEC O1): 25 µM
- cytological profile (confocal, FM4-64 / SYTO-9) (APEC O78 [21]): PG synthesis inhibitors
